Reference: patent publication US6734212B2, “Methods and compositions for treating or preventing bacterial infection” (Shanghai East Best Biopharmaceutical, priority 2001, dated 2004)
Where two headings read alike, the source gives them in different places.

Columns and labels:
H. pylori [1] = assay: MIC against 9 strains of H. pylori; type: cell-based; settings: 9 ATCC strains of H. pylori
Experimental: MICs (μg/ml) of several substances against 9 strains (ATCC43504, ATCC43629, ATCC43526,ATCC43579,ATCC49503,ATCC51110,ATCC51652,ATCC51653, ATCC51932) of H. pylori were examined. NE-2001 had minimal inhibitory concentrations (MICs) ranging from 0.10 to 0.48 μg/ml.

E. coli = assay: Effects of GMCHA derivatives on E. coli growth; type: cell-based; settings: for IC50: Escherichia coli; for E. coli IC91 / E. coli IC100: growth, Table 2
E. coli Proteinase In = biological target: T1, E. coli Proteinase In (Escherichia coli, UniProt P27298); assay: Inhibition of purified E. coli proteinase In (fluorogenic substrate Boc-Val-Pro-Arg-NH-Mec); type: biochemical
T1 construct: We detected a single activity and had purified it to homogeneity; made in house; host or cells: endogenous enzyme purified from E. coli extracts (not recombinant)
T1 sequence (P27298 whole entry): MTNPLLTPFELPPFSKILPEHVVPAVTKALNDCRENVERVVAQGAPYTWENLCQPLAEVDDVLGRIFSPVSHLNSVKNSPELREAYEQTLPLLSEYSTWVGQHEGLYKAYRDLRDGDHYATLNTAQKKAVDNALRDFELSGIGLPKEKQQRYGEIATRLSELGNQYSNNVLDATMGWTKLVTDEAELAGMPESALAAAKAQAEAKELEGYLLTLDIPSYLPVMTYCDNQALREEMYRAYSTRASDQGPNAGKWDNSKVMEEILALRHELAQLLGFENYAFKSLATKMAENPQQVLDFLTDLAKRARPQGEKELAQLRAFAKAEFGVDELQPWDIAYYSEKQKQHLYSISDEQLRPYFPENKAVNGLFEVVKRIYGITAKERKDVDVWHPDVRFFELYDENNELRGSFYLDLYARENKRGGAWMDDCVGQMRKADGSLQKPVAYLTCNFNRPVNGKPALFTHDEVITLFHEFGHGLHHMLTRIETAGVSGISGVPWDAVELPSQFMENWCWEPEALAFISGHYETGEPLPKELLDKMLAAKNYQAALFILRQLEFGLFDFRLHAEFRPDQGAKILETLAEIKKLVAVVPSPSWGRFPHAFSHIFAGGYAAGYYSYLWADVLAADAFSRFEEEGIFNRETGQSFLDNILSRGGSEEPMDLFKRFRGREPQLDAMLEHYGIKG
Excerpt: Since the GMCHA derivatives were originally identified as synthetic trypsin inhibitors in vitro, we investigated whether a trypsin-like protease could be detected in E. coli extracts using as fluorogenic substrate Boc-Val-Pro-Arg-NH-Mec. (Kato et al., Eur. J. Biochem., 210:1007-1014 (1992)). We detected a single activity and had purified it to homogeneity. […] The purified enzyme has a molecular mass of ˜66 kDa and an isoelectric point of 4.9. Based upon pH optimum, hydrolytic activity on various synthetic substrates, and effects of various known proteolytic inhibitors, this E. coli protease has very different specificity than mammalian trypsin or any of known bacterial enzymes. Most exciting is the finding that the sensitivity of the purified enzyme to various GMCHA derivatives paralleled exactly their inhibitory effects on E. coli (Table 1). […] (Kato et al., Biol.Pharm. Bull., 16:552-557 (1993)). […]. […] We named this enzyme proteinase In, and its gene was identical with prlC. The prlC gene encoded a 67 kDa protein with two active sites for proteinase In and oligopeptidase A. (Jiang et al., J. Biochem., 124:980-985 (1998)). […] (Irisawa et al., Biol. Pharm. Bull., 16:1211-1215 (1993)).

B. subtilis = assay: Effects of aromatic esters of GMCHA on growth of B. subtilis; type: cell-based; settings: for IC50: Bacillus subtilis
S. aureus = assay: Effects of aromatic esters of GMCHA on growth of S. aureus; type: cell-based; settings: for IC20: Staphylococcus aureus, read-out: S. aureus IC20; for S. aureus IC100: growth
S. epidermidis = assay: Effects of aromatic esters of GMCHA on growth of S. epidermidis; type: cell-based
[2] = tested on: synchronized E. coli cells; type: cell-based
H. pylori [3] = assay: Bactericidal effect against H. pylori (time course, various concentrations and pH); type: cell-based; settings: concentration ≧1.25 μg/ml
Experimental: FIG. 2 illustrates the anti-H. pylori effects of the compound NE-2001. Bactericidal effect was examined at various concentration (0.15-2.50 μg/ml) for 168 hours. […] No visible organism was detected in 3 hr at a concentration of ≧1.25 μg/ml.

H. pylori ATCC43504 = assay: Appearance frequency of natural resistant mutation; type: cell-based
Excerpt: FIG. 3. Illustrates the anti-H. pylori effects of the compound NE-2001 at various pH values. The appearance frequency of natural resistant mutations against NE-2001 was examined (Table 4).

[4] = Single dose toxicity in mice; type: in vivo
[5] = read-out: E. coli Proteinase In IC50

SMILES	MIC Range (H. pylori [1]) [µg/mL]	IC50 (E. coli) [µM]	E. coli IC91 (E. coli)	E. coli IC100 (E. coli) [µM]	IC50 (E. coli Proteinase In) [µM]	B. subtilis IC100 (B. subtilis) [µM]	IC50 (B. subtilis) [µM]	IC20 (S. aureus) [µM]	S. aureus IC100 (S. aureus) [µM]	S. epidermidis IC91 (S. epidermidis)	S. epidermidis IC100 (S. epidermidis) [µM]	also measured
CC1(C)S[C@@H]2[C@H](NC(=O)[C@H](N)c3ccc(O)cc3)C(=O)N2[C@H]1C(=O)O [Amoxicillin]	0.01 to 0.08	–	–	–	–	–	–	–	–	–	–	–
CC(C)(C)c1ccc(OC(=O)C2CCC(CNC(=N)N)CC2)cc1 (centres unmarked) [PH04]	–	45	45	90	38	50	26	3.4	15	2.9	10	duration of R1 period [2]: 35 min; time at which DNA synthetic activity doubled [2]: 65 min; time of initiation of DNA synthesis [2]: 30 min
Cc1ncc([N+](=O)[O-])n1CCO [Metronidazole]	0.65 to 2.45	–	–	–	–	–	–	–	–	–	–	–
N=C(N)NCC1CCC(C(=O)Oc2ccccc2)CC1 (centres unmarked) [PH01]	–	> 200	>200	> 200	–	> 200	> 200	151	> 200	128	> 200	IC50 (E. coli Proteinase In; [5]): > 200 µM
CC[C@H]1OC(=O)[C@H](C)[C@@H](O[C@H]2C[C@@](C)(OC)[C@@H](O)[C@H](C)O2)[C@H](C)[C@@H](O[C@@H]2O[C@H](C)C[C@H](N(C)C)[C@H]2O)[C@](C)(OC)C[C@@H](C)C(=O)[C@H](C)[C@@H](O)[C@]1(C)O [Clarithromycin]	0.01 to 0.90	–	–	–	–	–	–	–	–	–	–	–
Cc1ccc(OC(=O)C2CCC(CNC(=N)N)CC2)cc1 (centres unmarked) [PH02]	–	> 200	>200	> 200	–	> 200	> 200	47	120	48	120	IC50 (E. coli Proteinase In; [5]): > 200 µM
N=C(N)NCC1CCC(C(=O)Oc2ccccc2-c2ccccc2)CC1 (centres unmarked) [BP02]	–	74	–	–	83	–	–	–	–	–	–	–
CCc1ccc(OC(=O)C2CCC(CNC(=N)N)CC2)cc1 (centres unmarked) [PH03]	–	167	167	> 200	–	> 200	129	15	50	14	50	IC50 (E. coli Proteinase In; [5]): > 200 µM
N=C(N)NCC1CCC(C(=O)Oc2ccc(-c3ccccc3)cc2)CC1 (centres unmarked) [BP01]	–	26	26	40	17	10	4	0.6	2	0.4	1.5	–
N=C(N)NCC1CCC(C(=O)Oc2c(Cl)cc(Cl)cc2Cl)CC1 (centres unmarked) [PH06]	–	44	–	–	35	–	–	–	–	–	–	–
N=C(N)NCC1CCC(C(=O)Oc2ccc(Cl)cc2Cl)CC1 (centres unmarked) [PH05]	–	92	–	–	62	–	–	–	–	–	–	–
Cc1ccc(COC(=O)c2ccc(-c3ccc(OC(=O)c4ccc(CNC(=N)N)cc4)cc3)cc2)cc1 [NE-2001, 4-(4-methylbenzyl)-4′-[guanidinomethylbenzoyloxy] biphenyl-4-carboxylate]	0.10 to 0.48	–	–	–	–	–	–	–	–	–	–	time at which no visible organism was detected (H. pylori [3]): 3 h; Frequency of natural resistant mutation (H. pylori ATCC43504; selected concentration of NE-2001 0.30 μg/ml): <3.4 × 10^−8; Frequency of natural resistant mutation (H. pylori ATCC43504; selected concentration of NE-2001 0.60 μg/ml): <3.4 × 10^−8; Frequency of natural resistant mutation (H. pylori ATCC43504; selected concentration of NE-2001 1.20 μg/ml): <3.4 × 10^−8; LD50 ([4]; mouse, in vivo, 2000 mg/kg, oral, single dose, male mice, 6 weeks): > 2000 mg/kg; animal deaths ([4]; mouse, in vivo, po, 2000 mg/kg): no animal deaths occurred; body weight ([4]; mouse, in vivo, po, 2000 mg/kg): all animals gained weight; general toxicity ([4]; oral 2000 mg/kg, male mice): observed in neither cases
